Test results taken from patent US7901893B2, “NPC1L1 (NPC3) and methods of identifying ligands thereof” (Merck Sharp & Dohme Corp., priority 2004, dated 2011).
“Also recorded” adds a separate entry of the source. Blank lines part the entries; values can stand above or below the molecule they belong to.

Experiments:
rat NPC1L1 = rat NPC1L1 (Rattus norvegicus, UniProt Q6T3U3); assay: Effect of ezetimibe on cholesterol uptake, rat NPC1L1 transfected CHO cells; assay type: cell-based; parameters: expressed in transfected cells; pCDNA3); settings: EZ (10 μM); for Cholesteryl Ester, dpm ± sem / Cholesteryl Ester, dpm/mg protein ± sem / Free Cholesterol, dpm ± sem / Free Cholesterol, dpm/mg protein ± sem: 4 Hour Pulse
Description: (§1) The effect of ezetimibe on the ability of CHO cells stably transfected with mouse or rat NPC1L1 or mouse SR-B1 to take up ^3H-labeled cholesterol was evaluated in pulse-chase experiments. One cDNA clone of mouse NPC1L1 (C7) and three clones of rat NPC1L1 (C7, C17 and C21) were evaluated. The ability of CHO cells stably transfected with mouse SR-B1, mouse NPC1L1 and rat NPC1L1 to take up labeled cholesterol, in the absence of ezetimibe, was also evaluated in the pulse-chase experiments. Data generated in these experiments are set forth, below, in Tables 4 and 5. Additionally, the quantity of total cholesterol taken up by transfected and untransfected CHO cells in the presence of four different unlabeled cholesterol concentrations was also evaluated.
(§2) Starve. The maintenance media (F12 HAMS, 1% Pen/Strep, 10% FCS) was removed and the cells were rinsed with serum-free HAMS media. The serum-free media was then replaced with 1 mL “starve” media (F12 HAMS, Pen/Strep, 5% lipoprotein deficient serum (LPDS). The cells were then starved overnight.
(§3) Pre-Incubation/pre-dose. Media was removed from all plates and replaced with fresh starve media and preincubated for 30 minutes. Half of the wells received media containing ezetimibe (stock soln in EtOH; final conc.=10 μM).
(§4) ^3H-Cholesterol Pulse. The following was added directly to each well: • 0.5 μCi ^3H-cholesterol (˜1.1×10^6 dpm/well) in 50 μl of a mixed bile salt micelle • 4.8 mM sodium taurocholate (2.581 mg/mL) • 0.6 mM sodium oleate (0.183 mg/mL) • 0.25 mM cholesterol (0.1 mg/mL) • Dispersed in “starve” media by ultrasonic vibration • Final media cholesterol concentration=5 μg/mL
(§5) Labeled cholesterol pulse time points were 4, 12, 24 minutes and 4 hours. Triplicate wells were prepared for each treatment.
(§6) Wash. At designated times, media was aspirated and cells were washed once with Hobbs Buffer A (50 mM Tris, 0.9% NaCl, 0.2% bovine serum albumin (BSA), pH 7.4) and once with Hobbs Buffer B (50 mM Tris, 0.9% NaCl, pH 7.4 (no BSA)) at 37° C.
(§7) A. 4, 12, 24 minute time points: Cells were digested overnight with 0.2N NaOH, 2 mL/well, room temperature. One 1.5 mL aliquot was removed from each well, neutralized & counted for radioactivity by scintillation counting.
(§8) B. 4 hour time point: The digested cells were analyzed by thin-layer chromatography to determine the content of cholesterol ester in the cells.
(§9) Extracts were spotted onto TLC plates and run for 30 minutes in 2 ml hexane:isopropanol (3:2) mobile phase for 30 minutes, followed by a second run in 1 ml hexane:isopropanol (3:2) mobile phase for 15 minutes.
(§10) C. Protein determination of cell extracts. Plates containing a sample of the cell extracts were placed on orbital shaker at 120 rpm for indicated times and then extracts are pooled into 12×75 tubes. Plates were dried and NaOH (2 ml/well) added. The protein content of the samples were then determined. Two additional 50 μl aliquots from all wells were assayed for total protein by the Pierce micro BCA method. The quantity of labeled cholesterol observed in the cells was normalized to the quantity of protein in the cells.

[1] = tested on: CHO background (no transfection); assay: Effect of ezetimibe on cholesterol uptake, CHO background; assay type: cell-based, chinese hamster; settings: EZ (10 μM), CHO Control
Description: as §1, §2, §3, §4, §5, §6, §7, §8, §9, §10

cholesterol absorption = assay: Acute rat cholesterol absorption study; assay type: in vivo; settings: rat acute cholesterol absorption model
Description: To determine if in vitro binding activity is predictive of in vivo efficacy, the enantiomer of ezetimibe glucuronide and several close structural analogues of ezetimibe glucuronide that were tested in the rat membrane binding assay were tested in an acute rat cholesterol absorption study as described in Examples 23-26. […] For the other analogs, the same rank order of potency is observed in the in vitro and in vivo assays, further evidence that the observed binding is due to the target of ezetimibe.

Cholesteryl Ester, dpm ± sem (rat NPC1L1; rNPC1L1(C7)): 191 ± 54 dpm | Cholesteryl Ester, dpm/mg protein ± sem (rat NPC1L1; rNPC1L1(C7)): 1496 ± 403 dpm/mg protein | Free Cholesterol, dpm ± sem (rat NPC1L1; rNPC1L1(C7)): 70628 ± 212 dpm | Free Cholesterol, dpm/mg protein ± sem (rat NPC1L1; rNPC1L1(C7)): 556855 ± 7481 dpm/mg protein | Cholesteryl Ester, dpm ± sem (rat NPC1L1; rNPC1L1(C17)): 202 ± 10 dpm | Cholesteryl Ester, dpm/mg protein ± sem (rat NPC1L1; rNPC1L1(C17)): 1510 ± 62 dpm/mg protein | Free Cholesterol, dpm ± sem (rat NPC1L1; rNPC1L1(C17)): 71646 ± 446 dpm | Free Cholesterol, dpm/mg protein ± sem (rat NPC1L1; rNPC1L1(C17)): 536651 ± 7146 dpm/mg protein | Cholesteryl Ester, dpm ± sem (rat NPC1L1; rNPC1L1(C21)): 454 ± 33 dpm | Cholesteryl Ester, dpm/mg protein ± sem (rat NPC1L1; rNPC1L1(C21)): 3193 ± 265 dpm/mg protein | Free Cholesterol, dpm ± sem (rat NPC1L1; rNPC1L1(C21)): 69106 ± 711 dpm | Free Cholesterol, dpm/mg protein ± sem (rat NPC1L1; rNPC1L1(C21)): 485460 ± 4410 dpm/mg protein | Total Cholesterol, dpm ± sem (rat NPC1L1; 4 Min Pulse, rNPC1L1(C7)): 3268 ± 121 dpm | Total Cholesterol, dpm/mg protein ± sem (rat NPC1L1; 4 Min Pulse, rNPC1L1(C7)): 27285 ± 968 dpm/mg protein | Total Cholesterol, dpm ± sem (rat NPC1L1; 4 Min Pulse, rNPC1L1(C17)): 3676 ± 134 dpm | Total Cholesterol, dpm/mg protein ± sem (rat NPC1L1; 4 Min Pulse, rNPC1L1(C17)): 28675 ± 527 dpm/mg protein | Total Cholesterol, dpm ± sem (rat NPC1L1; 4 Min Pulse, rNPC1L1(C21)): 3769 ± 147 dpm | Total Cholesterol, dpm/mg protein ± sem (rat NPC1L1; 4 Min Pulse, rNPC1L1(C21)): 27098 ± 689 dpm/mg protein | Total Cholesterol, dpm ± sem (rat NPC1L1; 12 Min Pulse, rNPC1L1(C7)): 4664 ± 63 dpm | Total Cholesterol, dpm/mg protein ± sem (rat NPC1L1; 12 Min Pulse, rNPC1L1(C7)): 38581 ± 784 dpm/mg protein | Total Cholesterol, dpm ± sem (rat NPC1L1; 12 Min Pulse, rNPC1L1(C17)): 4579 ± 257 dpm | Total Cholesterol, dpm/mg protein ± sem (rat NPC1L1; 12 Min Pulse, rNPC1L1(C17)): 34063 ± 1619 dpm/mg protein | Total Cholesterol, dpm ± sem (rat NPC1L1; 12 Min Pulse, rNPC1L1(C21)): 4703 ± 231 dpm | Total Cholesterol, dpm/mg protein ± sem (rat NPC1L1; 12 Min Pulse, rNPC1L1(C21)): 33985 ± 1928 dpm/mg protein | Total Cholesterol, dpm ± sem (rat NPC1L1; 24 Min Pulse, rNPC1L1(C7)): 7829 ± 204 dpm | Total Cholesterol, dpm/mg protein ± sem (rat NPC1L1; 24 Min Pulse, rNPC1L1(C7)): 63482 ± 368 dpm/mg protein | Total Cholesterol, dpm ± sem (rat NPC1L1; 24 Min Pulse, rNPC1L1(C17)): 8192 ± 237 dpm | Total Cholesterol, dpm/mg protein ± sem (rat NPC1L1; 24 Min Pulse, rNPC1L1(C17)): 62279 ± 4352 dpm/mg protein | Total Cholesterol, dpm ± sem (rat NPC1L1; 24 Min Pulse, rNPC1L1(C21)): 8760 ± 293 dpm | Total Cholesterol, dpm/mg protein ± sem (rat NPC1L1; 24 Min Pulse, rNPC1L1(C21)): 66165 ± 2181 dpm/mg protein
SMILES: O=C1[C@H](CC[C@H](O)c2ccc(F)cc2)[C@@H](c2ccc(O)cc2)N1c1ccc(F)cc1 [ezetimibe]
Cholesteryl Ester, dpm ± sem ([1]; 4 Hour Pulse): 208 ± 9 dpm | Cholesteryl Ester, dpm/mg protein ± sem ([1]; 4 Hour Pulse): 1902 ± 87 dpm/mg protein | Free Cholesterol, dpm ± sem ([1]; 4 Hour Pulse): 56792 ± 568 dpm | Free Cholesterol, dpm/mg protein ± sem ([1]; 4 Hour Pulse): 519607 ± 16203 dpm/mg protein | Total Cholesterol, dpm ± sem ([1]; 4 Min Pulse): 3222 ± 26 dpm | Total Cholesterol, dpm/mg protein ± sem ([1]; 4 Min Pulse): 31881 ± 483 dpm/mg protein | Total Cholesterol, dpm ± sem ([1]; 12 Min Pulse): 4532 ± 165 dpm | Total Cholesterol, dpm/mg protein ± sem ([1]; 12 Min Pulse): 43391 ± 1197 dpm/mg protein | Total Cholesterol, dpm ± sem ([1]; 24 Min Pulse): 6678 ± 215 dpm | Total Cholesterol, dpm/mg protein ± sem ([1]; 24 Min Pulse): 61764 ± 2131 dpm/mg protein

SMILES: O=C(O)C1OC(Oc2ccc(C3C(CCC(O)c4ccc(F)cc4)C(=O)N3c3ccc(F)cc3)cc2)C(O)C(O)C1O (single isomer, unassigned) [Compound 4]
activity in vivo (cholesterol absorption): inactive; also recorded: lack of activity
